These results are taken from patent US20240132431A1, “METHOD FOR ALKYLATING ACIDIC FUNCTIONAL GROUP” (Chugai Seiyaku Kabushiki Kaisha, priority 2021, published 2024).

The assay deals with T1, Bcl-2 protein (Recombinant Human Bcl-2 Protein) (Homo sapiens, UniProt P10415).
T1 construct: purchased Novus NBP2-34889
In words: Binding evaluation of mixture library compounds to Bcl-2 using AS-MS (affinity selection mass spectrometry). The note with it: for ASMS ratio (%) n = 1 / ASMS ratio (%) n = 2: ASMS Ratio(%)=(A−C)/B×100; for ASMS ratio (%) n = 1: replicate n = 1; for ASMS ratio (%) n = 2: replicate n = 2. The essentials:
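Affinity selection MS: Bcl-2 20 μM + 1200-cpd mixture, […]/cpd, Tris pH 7.4 buffer w/ Tween-20, DTT; 1 h 23° C dark; P-2 spin SEC; MeCN/MeOH extraction; RP LC/MS. ASMS Ratio(%) = (A−C)/B×100.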

Where [1] appears, read: AS-MS, mixture of 1200 compounds, Bcl-2.
Where [2] appears, read: AS-MS on the mixture of 1200 library compounds.

T1 sequence (P10415 whole entry): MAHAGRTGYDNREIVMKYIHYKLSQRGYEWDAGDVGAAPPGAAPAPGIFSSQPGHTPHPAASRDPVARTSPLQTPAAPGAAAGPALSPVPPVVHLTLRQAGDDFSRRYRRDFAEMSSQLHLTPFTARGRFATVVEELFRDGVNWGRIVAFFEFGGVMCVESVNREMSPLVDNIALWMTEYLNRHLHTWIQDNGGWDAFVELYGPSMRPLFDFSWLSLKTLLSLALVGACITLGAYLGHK

Consider `CCOc1cccc(C#Cc2ccccc2CN2CCN(c3ccc(C(=O)NS(=O)(=O)C(C)(C)C)cc3)CC2)c1` [B2L069-01, N-tert-Butylsulfonyl-4-[4-[[2-[2-(3-ethoxyphenyl)ethynyl]phenyl]methyl]piperazin-1-yl]benzamide], for which the “ASMS ratio (%)” value reads like this: (n = 1) 0.0%; (n = 2) 0.0%.
With `CCOc1cccc(-c2ccc(CN3CCN(c4ccc(C(=O)NCC(F)(F)F)nn4)CC3)c(OC)c2)c1` [B1K079-01, 6-[4-[[4-(3-Ethoxyphenyl)-2-methoxyphenyl]methyl]piperazin-1-yl]-N-(2,2,2-trifluoroethyl)pyridazine-3-carboxamide], under setting [1], the “ASMS ratio (%) n = 1” value was determined as 2.2% and the “ASMS ratio (%) n = 2” value is −1.3%.
For `CCOc1cccc(-c2ccc(C(=O)N3CCN(c4ccc(C(=O)Nc5ccc(OC)cc5)cc4)CC3)cc2F)c1` [B1O027-01, 4-[4-[4-(3-Ethoxyphenyl)-3-fluorobenzoyl]piperazin-1-yl]-N-(4-methoxyphenyl)benzamide], under setting [2], the “ASMS ratio (%) n = 1” value came to 3.8% and the “ASMS ratio (%) n = 2” value worked out at 2.1%.
For `CCOc1cncc(-c2csc(C(=O)N3CCN(c4ccc(C(=O)Nc5ccc(OC)cc5)nn4)CC3)c2)c1` [B1O002-01, 6-[4-[4-(5-Ethoxypyridin-3-yl)thiophene-2-carbonyl]piperazin-1-yl]-N-(4-methoxyphenyl)pyridazine-3-carboxamide] the same measures were 2.2% and 2.6%.
For “6-[4-[3-[4-(5-Ethoxypyridin-3-yl)pyrazol-1-yl]-5-(trifluoromethyl)benzoyl]piperazin-1-yl]-N-propylpyridazine-3-carboxamide [B1M030-01]”, under setting [1], the “ASMS ratio (%) n = 1” value is 0.0% and the “ASMS ratio (%) n = 2” value is −5.9%.
As for `CCOc1cncc(-c2cc(C(=O)N3CCN(c4ccc(C(=O)NS(C)(=O)=O)cc4)CC3)cc(C(C)(C)C)c2)c1` [B2I038-01, 4-[4-[3-tert-Butyl-5-(5-ethoxypyridin-3-yl)benzoyl]piperazin-1-yl]-N-methylsulfonylbenzamide], under “AS-MS, mixture library, Bcl-2”, the “ASMS ratio (%) n = 1” value worked out at 0.0% and the “ASMS ratio (%) n = 2” value was 0.0%.
As for `CCOc1cncc(-c2ccccc2CCC(=O)N2CCN(c3ccc(C(=O)N(CC)CC)nn3)CC2)c1` [B4J012-01, 6-[4-[3-[2-(5-Ethoxypyridin-3-yl)phenyl]propanoyl]piperazin-1-yl]-N,N-diethylpyridazine-3-carboxamide], under setting [2], the “ASMS ratio (%) n = 1” value is listed as −1.1% and the “ASMS ratio (%) n = 2” value is recorded as −0.8%.
With `CCOc1cccc(C#Cc2cc(C(=O)N3CCN(c4ccc(C(=O)NCC(F)(F)F)cc4)CC3)cc(C(F)(F)F)c2)c1` [B1K041-01, 4-[4-[3-[2-(3-Ethoxyphenyl)ethynyl]-5-(trifluoromethyl)benzoyl]piperazin-1-yl]-N-(2,2,2-trifluoroethyl)benzamide], under setting [1], the “ASMS ratio (%) n = 1” value is recorded as 0.0% and the “ASMS ratio (%) n = 2” value was 0.0%.
As to `CCOc1cccc(-c2ccc(CN3CCN(c4ccc(C(=O)NCC(F)(F)F)nn4)CC3)c(CC)c2)c1` [B1K075-01, 6-[4-[[4-(3-Ethoxyphenyl)-2-ethylphenyl]methyl]piperazin-1-yl]-N-(2,2,2-trifluoroethyl)pyridazine-3-carboxamide], under setting [1], the “ASMS ratio (%) n = 1” value is 1.4% and the “ASMS ratio (%) n = 2” value is given as −3.8%.
As for `CCOc1cncc(-c2ccccc2CN2CCN(c3ccc(C(=O)NS(C)(=O)=O)cc3)CC2)c1` [B2I046-01, 4-[4-[[2-(5-Ethoxypyridin-3-yl)phenyl]methyl]piperazin-1-yl]-N-methylsulfonylbenzamide], the “ASMS ratio (%)” value was −0.6% (n = 1) and 1.5% (n = 2).
For `CCOc1cccc(-c2csc(CN3CCN(c4ccc(C(=O)NCC(F)(F)F)cc4)CC3)c2)c1` [B1K067-01, 4-[4-[[4-(3-Ethoxyphenyl)thiophen-2-yl]methyl]piperazin-1-yl]-N-(2,2,2-trifluoroethyl)benzamide], under setting [1], the “ASMS ratio (%) n = 1” value came to 5.1% and the “ASMS ratio (%) n = 2” value is listed as 1.8%.
As to `CCOc1cccc(-c2ccc(C(=O)N3CCN(c4ccc(C(=O)NS(=O)(=O)C(C)(C)C)cc4)CC3)c3ccccc23)c1` [B2L035-01, N-tert-Butylsulfonyl-4-[4-[4-(3-ethoxyphenyl)naphthalene-1-carbonyl]piperazin-1-yl]benzamide], the “ASMS ratio (%)” value (n = 1) is reported as 0.0%.
With `CCOc1cncc(-c2cc(CN3CCN(c4ccc(C(=O)NS(C)(=O)=O)nn4)CC3)cc(OCC)c2)c1` [B2I082-01, 6-[4-[[3-Ethoxy-5-(5-ethoxypyridin-3-yl)phenyl]methyl]piperazin-1-yl]-N-methylsulfonylpyridazine-3-carboxamide], the “ASMS ratio (%)” value runs as follows: (n = 1) 0.0%; (n = 2) 1.9%.
On to `CCOc1cncc(-c2ccc(CN3CCN(c4ccc(C(=O)NS(C)(=O)=O)nn4)CC3)c(OC)c2)c1` [B2I080-01, 6-[4-[[4-(5-Ethoxypyridin-3-yl)-2-methoxyphenyl]methyl]piperazin-1-yl]-N-methylsulfonylpyridazine-3-carboxamide], for which the “ASMS ratio (%)” value (n = 1) came to 0.0%.
Turning to `CCOc1cncc(-c2ccc(C(C)N3CCN(c4ccc(C(=O)NS(=O)(=O)CC56CC7CC(CC(C7)C5)C6)cc4)CC3)cc2)c1` (centres unmarked) [B2A098-01, N-(1-Adamantylmethylsulfonyl)-4-[4-[1-[4-(5-ethoxypyridin-3-yl)phenyl]ethyl]piperazin-1-yl]benzamide], under “AS-MS, mixture library, Bcl-2”, the “ASMS ratio (%) n = 1” value was determined as 18.2% and the “ASMS ratio (%) n = 2” value was found to be 2.1%.
With `CCOc1cccc(-c2cc(CN3CCN(c4ccc(C(=O)NCC(F)(F)F)nn4)CC3)cc(C(F)(F)F)c2)c1` [B1K087-01], under setting [1], the “ASMS ratio (%) n = 1” value amounted to 1.8% and the “ASMS ratio (%) n = 2” value is recorded as −0.1%.
Turning to “4-[4-[5-[2-(3-Ethoxyphenyl)ethynyl]pyridine-3-carbonyl]piperazin-1-yl]-N-propylbenzamide [B1M002-01]”, under setting [1], the “ASMS ratio (%) n = 1” value is given as −0.7% and the “ASMS ratio (%) n = 2” value was −1.5%.
Consider `CCOc1cccc(C#Cc2ccccc2C(=O)N2CCN(c3ccc(C(=O)NS(C)(=O)=O)cc3)CC2)c1` [B2I029-01, 4-[4-[2-[2-(3-Ethoxyphenyl)ethynyl]benzoyl]piperazin-1-yl]-N-methylsulfonylbenzamide], for which, where the note is “AS-MS, mixture library, Bcl-2”, the “ASMS ratio (%) n = 1” value came to 0.0% and the “ASMS ratio (%) n = 2” value was 0.0%.
Take `CCOc1cncc(-c2cc(CN3CCN(c4ccc(C(=O)N(CC)CC)cc4)CC3)cc(C(F)(F)F)c2)c1` [B4J062-01, 4-[4-[[3-(5-Ethoxypyridin-3-yl)-5-(trifluoromethyl)phenyl]methyl]piperazin-1-yl]-N,N-diethylbenzamide]: for the setting “AS-MS, mixture library, Bcl-2”, the “ASMS ratio (%) n = 1” value was determined as 0.0% and the “ASMS ratio (%) n = 2” value is recorded as 0.0%.
For the molecule “6-[4-[4-(3-Ethoxyphenyl)thiophene-2-carbonyl]piperazin-1-yl]-N-propylpyridazine-3-carboxamide [B1M081-01]”, under setting [2], the “ASMS ratio (%) n = 1” value was found to be 0.0% and the “ASMS ratio (%) n = 2” value is 0.0%.
In the case of `CCOc1cccc(-c2cnn(-c3cc(C(=O)N4CCN(c5ccc(C(=O)NS(=O)(=O)C(C)(C)C)nn5)CC4)cc(C(F)(F)F)c3)c2)c1` [B2L021-01, N-tert-Butylsulfonyl-6-[4-[3-[4-(3-ethoxyphenyl)pyrazol-1-yl]-5-(trifluoromethyl)benzoyl]piperazin-1-yl]pyridazine-3-carboxamide], the “ASMS ratio (%)” value is given as 0.0% (n = 1) and −14.9% (n = 2).
Consider `CCOc1cncc(-c2csc(C(=O)N3CCN(c4ccc(C(=O)NS(C)(=O)=O)cc4)CC3)c2)c1` [B2I024-01, 4-[4-[4-(5-Ethoxypyridin-3-yl)thiophene-2-carbonyl]piperazin-1-yl]-N-methylsulfonylbenzamide], for which, under “AS-MS, mixture library, Bcl-2”, the “ASMS ratio (%) n = 1” value is 0.0% and the “ASMS ratio (%) n = 2” value is given as 0.0%.
In the case of `CCOc1cccc(-c2csc(C(=O)N3CCN(c4ccc(C(=O)NS(=O)(=O)c5ccc(NCCSc6ccccc6)c([N+](=O)[O-])c5)nn4)CC3)c2)c1` [B2Q001-01, 6-[4-[4-(3-Ethoxyphenyl)thiophene-2-carbonyl]piperazin-1-yl]-N-[3-nitro-4-(2-phenylsulfanylethylamino)phenyl]sulfonylpyridazine-3-carboxamide], for the setting “AS-MS, mixture library, Bcl-2”, the “ASMS ratio (%) n = 1” value was found to be 0.0% and the “ASMS ratio (%) n = 2” value was determined as 0.0%.
With `CCOc1cncc(C#Cc2cncc(C(=O)N3CCN(c4ccc(C(=O)NCC(F)(F)F)nn4)CC3)c2)c1` [B1K010-01, 6-[4-[5-[2-(5-Ethoxypyridin-3-yl)ethynyl]pyridine-3-carbonyl]piperazin-1-yl]-N-(2,2,2-trifluoroethyl)pyridazine-3-carboxamide], under setting [1], the “ASMS ratio (%) n = 1” value is listed as 0.0% and the “ASMS ratio (%) n = 2” value is given as 0.0%.
Take `CCOc1cncc(-c2cc(CN3CCN(c4ccc(C(=O)Nc5ccc(OC)cc5)cc4)CC3)cc(OC(F)(F)F)c2)c1` [B1O064-01, 4-[4-[[3-(5-Ethoxypyridin-3-yl)-5-(trifluoromethoxy)phenyl]methyl]piperazin-1-yl]-N-(4-methoxyphenyl)benzamide]: under setting [2], the “ASMS ratio (%) n = 1” value is listed as 0.7% and the “ASMS ratio (%) n = 2” value is recorded as −4.0%.
In the case of `CCOc1cncc(-c2ccc(C(=O)N3CCN(c4ccc(C(=O)NS(=O)(=O)CC56CC7CC(CC(C7)C5)C6)nn4)CC3)c3ccccc23)c1` [B2A014-01, N-(1-Adamantylmethylsulfonyl)-6-[4-[4-(5-ethoxypyridin-3-yl)naphthalene-1-carbonyl]piperazin-1-yl]pyridazine-3-carboxamide], for the setting “AS-MS, mixture library, Bcl-2”, the “ASMS ratio (%) n = 1” value is 7.7% and the “ASMS ratio (%) n = 2” value is on record as 2.2%.
